Legend:
[1] = target: T1, IRAK4 (Homo sapiens, UniProt Q9NWZ3); assay: OCI-LY-10 MSD assay for IRAK4 DC50; assay type: cell-based; set-up: endogenous in cells; host or cells: OCI-LY10; conditions: OCI-LY10 cells, 4 hr incubation, concentration required to degrade 50% of protein
T1 sequence (Q9NWZ3 1-460): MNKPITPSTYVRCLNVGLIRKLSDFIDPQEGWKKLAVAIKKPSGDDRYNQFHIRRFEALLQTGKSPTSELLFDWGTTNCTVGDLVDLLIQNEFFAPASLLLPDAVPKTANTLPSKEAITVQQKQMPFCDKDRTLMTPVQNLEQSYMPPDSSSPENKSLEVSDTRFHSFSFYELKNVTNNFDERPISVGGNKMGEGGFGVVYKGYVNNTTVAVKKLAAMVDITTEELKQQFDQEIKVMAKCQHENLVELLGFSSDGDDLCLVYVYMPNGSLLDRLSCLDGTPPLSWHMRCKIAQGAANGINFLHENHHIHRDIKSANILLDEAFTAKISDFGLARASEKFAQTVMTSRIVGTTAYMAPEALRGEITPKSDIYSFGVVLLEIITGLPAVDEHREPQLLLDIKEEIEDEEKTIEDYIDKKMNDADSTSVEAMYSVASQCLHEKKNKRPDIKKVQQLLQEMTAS
Procedure: A MSD assay was run to determine the concentration of compound required to degrade 50% of protein (DC50).
Day 1 • Compounds were reconstituted to 10 mM in stock solutions. The stock solutions were diluted to 5 mM and 45 μL of each dilution was transferred to a 384 pp-plate. A 3 fold, 8-point serial dilution was performed by transferring 15 μL of compound into 30 μL DMSO using Janus. • 20 nL of each compounds were added into each well of a 96-well plate (Corning3799). • OCI-Ly10 cells were seeded into the 96-well plate at 3.0*10e^5 cells/100 μL/well. • The cell plate was shaken at 720 rpm for 5 min and incubated for 4 hr. • The 100 μL of cells were transferred into the 96-PCR plate and spun down at high speed for 5 mins. • The supernatant was discarded and 100 μL of RIPA lysis buffer with proteinase inhibitors was added per well. The plate was then sealed and shaken at 600 rpm and 4° C. for about 20 min. • The plate was then spun down at high speed (about 3200 g) for 30 min and then frozen in a −80° C. fridge. • A bare MSD plate (L15XA-3) was coated with 2 μg/mL of capture antibody (mouse Anti-IRAK4 antibody [2H9], ab119942) in PBS to 40 μL/well and incubated overnight at 4° C.
Day 2 • The MSD coated plate was washed 3× (150 μL/well) with 1×TBST (CST #9997S). • The MSD plate was then blocked with 150 μL of blocking buffer [3% Blocker A (MSD, R93BA-4) in TBST]/well and shaken for 1 hr at R^† and 600 rpm. • The MSD plate was washed 3× (150 μL/well) with 1×TBST. The sample RIPA lysates were then added to the MSD plate (50 μL/well) and shaken for 1 hr at R^† and 600 rpm. • The MSD plate was washed 3× (150 μL/well) with 1×TBST and the primary detection antibody (Rabbit Anti-IRAK4 antibody [Y279], ab32511) was added to a final concentration of 1 μg/ml with 25 μL/well. The plate was then shaken for 1 hr at RT and 600 rpm. • The MSD plate was washed 3× (150 μL/well) with 1×TBST and the secondary detection antibody, SULFO-TAG anti-species antibody (Anti Rabbit Antibody (R32AB-5) MSD, R32AB-1) was added to a volume of 25 μL/well at a final concentration of 1 jag/ml. The plate was then shaken for 1 hr at RT and 600 rpm. • The MSD plate was then washed 3× (150 μL/well) with 1×TBST. • lx MSD reading buffer was then added (150 μL/well) and the plate was diluted with 4× water. (MSD, R92TC-2) • The MSD instrument was then read.
Data Analysis • The remaining activity was calculated following the formula below:
Calculate • The DC50 was calculated by fitting the Curve using Xlfit (v5.3.1.3), equation 201: Y=Bottom+(Top−Bottom)/(1+10^((Log IC50−X)*HillSlope))
OCI-LY-10 DC50 results. The letter codes for IRAK4 DC50 indicate the concentration of compound required to degrade 50% of protein: A (<0.05 μM), B (0.05-0.1 μM), C (0.1-0.5 μM), D (0.5-1.0 μM), and E (>1.0 μM).

[2] = target: T1, IRAK4; assay: OCI-LY-10 degradation assay (western blot, % IRAK4 degraded after 4 hours); assay type: cell-based; set-up: endogenous in cells; host or cells: OCI-LY10; conditions: OCI-LY10 cells; for OCI-LY10 % IRAK4 Degradation (0.01 uM) / OCI-LY10 % IRAK4 Degradation (0.1 uM) / OCI-LY10 % IRAK4 Degradation (1 uM): 4 hours; for OCI-LY10 % IRAK4 Degradation (0.01 uM): 0.01 uM compound; for OCI-LY10 % IRAK4 Degradation (0.1 uM): 0.1 uM compound; for OCI-LY10 % IRAK4 Degradation (1 uM): 1 uM compound
Method in brief: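 IRAK4 loss after 4 h at 37° C was scored A (>50%), B (>20-50%) or C (<20%) from infrared western blots of RIPA lysates, 20-25 μg protein per lane. Compound was applied at 0.003-10 μM final to OCI-LY10 cells cultured in RPMI-1640 with 20% FBS and 55 μM 2-ME.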

Row | SMILES | DC50 [1] [nM] | also measured
1 | Cn1c(=O)n(C2CCC(=O)NC2=O)c2cccc(CCCOCCOCCNC3(c4ccc(-n5cc(NC(=O)c6coc(-c7ccnc(NCC8CC8)c7)n6)c(C(F)F)n5)cc4)CC3)c21 (stereo not drawn) [I-403] | 50 to 100 | 
2 | NC(=O)c1nn(-c2ccc(CNCCCOCCCOCCCNc3cccc4c3C(=O)N(C3CCC(=O)NC3=O)C4=O)cc2)cc1NC(=O)c1coc(-c2ccnc(NCC3CC3)c2)n1 (stereo not drawn) [I-398] | 100 to 500 | 
3 | O=C1CCC(N2C(=O)c3cccc(NCCOCCOCCNC(=O)c4ccc(-n5cc(NC(=O)c6coc(-c7ccnc(NCC(F)(F)F)c7)n6)c(C(F)F)n5)cc4)c3C2=O)C(=O)N1 (stereo not drawn) [I-261] | 100 to 500 | 
4 | O=C1CCC(N2C(=O)c3cccc(NCCOCCOCCNCc4ccc(-n5cc(NC(=O)c6coc(-c7ccnc(NCC(F)(F)F)c7)n6)c(CCCO)n5)cc4)c3C2=O)C(=O)N1 (stereo not drawn) [I-402] | > 1000 | 
5 | Cn1c(=O)n(C2CCC(=O)NC2=O)c2cccc(CCCOCCCNCc3ccc(-n4cc(NC(=O)c5coc(-c6ccnc(NCC7CC7)c6)n5)c(C(F)F)n4)cc3)c21 (stereo not drawn) [I-404] | < 50 | 
6 | O=C1CCC(N2C(=O)c3ccc(NC4CCN(CCOCCNC(=O)c5ccc(-n6cc(NC(=O)c7coc(-c8ccnc(NCC9CC9)c8)n7)c(C(F)F)n6)cc5)CC4)cc3C2=O)C(=O)N1 (stereo not drawn) [I-271] | 100 to 500 | 
7 | Cn1cc(NC(=O)c2coc(-c3ccnc(NCC(F)(F)F)c3)n2)c(CNCCCOCCCOCCCNc2cccc3c2C(=O)N(C2CCC(=O)NC2=O)C3=O)n1 (stereo not drawn) [I-412] | > 1000 | 
8 | O=C1CCC(N2C(=O)c3cccc(N4CCN(CCOCCOCCNC(=O)c5ccc(-n6cc(NC(=O)c7coc(-c8ccnc(NCC9CC9)c8)n7)c(C(F)F)n6)cc5)CC4)c3C2=O)C(=O)N1 (stereo not drawn) [I-273] | 50 to 100 | 
9 | O=C1CCC(N2C(=O)c3cccc(NC4CCN(CCOCCOCCNCc5ccc(-n6cc(NC(=O)c7coc(-c8ccnc(NCC9CC9)c8)n7)c(C(F)F)n6)cc5)CC4)c3C2=O)C(=O)N1 (stereo not drawn) [I-334] | 50 to 100 | 
10 | Cn1cc(NC(=O)c2coc(-c3ccnc(NCC(F)(F)F)c3)n2)c(C(=O)NCCOCCOCCOCCOCCOCCNc2cccc3c2C(=O)N(C2CCC(=O)NC2=O)C3=O)n1 (stereo not drawn) [I-214] | > 1000 | 
11 | O=C1CCC(N2C(=O)c3cccc(N4CCN(CCOCCOCCOCCNCc5ccc(-n6cc(NC(=O)c7coc(-c8ccnc(NCC9CC9)c8)n7)c(C(F)F)n6)cc5)CC4)c3C2=O)C(=O)N1 (stereo not drawn) [I-391] | 100 to 500 | 
12 | Cn1cc(NC(=O)c2coc(-c3ccnc(NCC(F)(F)F)c3)n2)c(C(=O)NCCCOCCCOCCCNc2cccc3c2C(=O)N(C2CCC(=O)NC2=O)C3=O)n1 (stereo not drawn) [I-294] | > 1000 | 
13 | Cn1c(=O)n(C2CCC(=O)NC2=O)c2ccc(CCCOCCCNCc3ccc(-n4cc(NC(=O)c5coc(-c6ccnc(NCC7CC7)c6)n5)c(C(F)F)n4)cc3)cc21 (stereo not drawn) [I-405] | < 50 | 
14 | Cc1ncsc1-c1ccc(CNC(=O)[C@@H]2C[C@@H](O)CN2C(=O)[C@@H](NCCOCCOCCOCCNC(=O)c2nn(C)cc2NC(=O)c2coc(-c3ccnc(NCC(F)(F)F)c3)n2)C(C)(C)C)cc1 [I-295] | > 1000 | 
15 | CC(C)(OCCOCCNc1cccc2c1C(=O)N(C1CCC(=O)NC1=O)C2=O)C(F)CNC(=O)c1cnc(Nc2ccc3cnccc3n2)cc1NC1CC1 (stereo not drawn) [I-80] |  | OCI-LY10 % IRAK4 Degradation ([2]; IRAK4 degraded after 4 hours, western blot): C (<20% degradation)
16 | O=C1CCC(N2C(=O)c3ccc(NCCc4cnnn4CCOCCOCCNCc4ccc(-n5cc(NC(=O)c6coc(-c7ccnc(NCC8CC8)c7)n6)c(C(F)F)n5)cc4)cc3C2=O)C(=O)N1 (stereo not drawn) [I-343] |  | OCI-LY10 % IRAK4 Degradation (0.01 uM) [2]: C (<20% degradation); OCI-LY10 % IRAK4 Degradation (0.1 uM) [2]: B (>20-50% degradation); OCI-LY10 % IRAK4 Degradation (1 uM) [2]: A (>50% degradation)
17 | Cn1c(=O)n(C2CCC(=O)NC2=O)c2cccc(CCCOCCOCCNCc3ccc(-n4cc(NC(=O)c5coc(-c6ccnc(NCC(F)(F)F)c6)n5)c(C(N)=O)n4)cc3)c21 (stereo not drawn) [I-328] |  | OCI-LY10 % IRAK4 Degradation (0.01 uM) [2]: A (>50% degradation); OCI-LY10 % IRAK4 Degradation (0.1 uM) [2]: A (>50% degradation); OCI-LY10 % IRAK4 Degradation (1 uM) [2]: A (>50% degradation)

Continued, in another order:

Row | DC50 [1] [nM] | SMILES | also measured
18 | > 1000 | Cn1c(=O)n(C2CCC(=O)NC2=O)c2cccc(CCCNCc3ccc(-n4cc(NC(=O)c5coc(-c6ccnc(NCC7CC7)c6)n5)c(C(F)F)n4)cc3)c21 (stereo not drawn) [I-423] | 
19 | > 1000 | Cn1c(=O)n(C2CCC(=O)NC2=O)c2ccc(CCCOCCC(=O)N3CCN(C4CCC(Nc5ncnn6ccc(C7CCOCC7)c56)CC4)CC3)cc21 (stereo not drawn) [I-437, 3-[3-Methyl-2-oxo-5-[3-[3-oxo-3-[4-[4-[(5-tetrahydropyran-4-ylpyrrolo[2,1-f][1,2,4]triazin-4-yl)amino]cyclohexyl]piperazin-1-yl]propoxy]propyl]benzimidazol-1-yl]piperidine-2,6-dione] | 
20 | > 1000 | Cn1c(=O)n(C2CCC(=O)NC2=O)c2cccc(CCCOCCOCCOCCOCC(=O)N[C@H]3CC[C@H](Nc4ncnc5[nH]cc(C6CCOCC6)c45)CC3)c21 (stereo partly drawn) [I-440, 2-[2-[2-[2-[3-[1-(2,6-Dioxo-3-piperidyl)-3-methyl-2-oxo-benzimidazol-4-yl]propoxy]ethoxy]ethoxy]ethoxy]-N-[4-[(5-tetrahydropyran-4-yl-7H-pyrrolo[2,3-d]pyrimidin-4-yl)amino]cyclohexyl]acetamide] | 
21 | 100 to 500 | Cn1c(=O)n(C2CCC(=O)NC2=O)c2ccc(CCCOCC(C)(C)COCCCNCc3ccc(-n4cc(NC(=O)c5coc(-c6ccnc(NCC7CC7)c6)n5)c(C(F)F)n4)cc3)cc21 (stereo not drawn) [I-421] | 
22 | > 1000 | Cn1c(=O)n(C2CCC(=O)NC2=O)c2ccc(CCCCCCC(=O)N3CCN(C4CCC(Nc5ncnn6ccc(C7CCOCC7)c56)CC4)CC3)cc21 (stereo not drawn) [I-438] | 
23 | > 1000 | CC1(C)CCN(c2nn(-c3ccc(C(=O)NCCOCCOCCNc4cccc5c4C(=O)N(C4CCC(=O)NC4=O)C5=O)cc3)cc2NC(=O)c2coc(-c3ccnc(NCC(F)(F)F)c3)n2)C1=O (stereo not drawn) [I-429, N-[3-(3,3-dimethyl-2-oxo-pyrrolidin-1-yl)-1-[4-[2-[2-[2-[[2-(2,6-dioxo-3-piperidyl)-1,3-dioxo-isoindolin-4-yl]amino]ethoxy]ethoxy]ethyl]carbamoyl]phenyl]pyrazol-4-yl-2-[2-(2,2,2-trifluoroethylamino)-4-pyridyl]oxazole-4-carboxamide] | 
24 | > 1000 | COCC(=O)N[C@H](C(=O)N1Cc2cc(OCCOCCOCCOCCNCc3ccc(-n4cc(NC(=O)c5coc(-c6ccnc(NCC7CC7)c6)n5)c(C(F)F)n4)cc3)ccc2CC1C(=O)N[C@@H]1CCCc2ccccc21)C(C)(C)C (stereo partly drawn) [I-417] | 
25 | > 1000 | CN[C@@H](C)C(=O)N[C@H](C(=O)N1CCC[C@H]1c1nc(C(=O)c2cccc(OCCOCCOCCOCCNCc3ccc(-n4cc(NC(=O)c5coc(-c6ccnc(NCC7CC7)c6)n5)c(C(F)F)n4)cc3)c2)cs1)C1CCCCC1 [I-554] | 
26 | 100 to 500 | Cn1c(=O)n(C2CCC(=O)NC2=O)c2cccc(CCCOCC(C)(C)COCCCNCc3ccc(-n4cc(NC(=O)c5coc(-c6ccnc(NCC7CC7)c6)n5)c(C(F)F)n4)cc3)c21 (stereo not drawn) [I-419] | 

Source: patent US10874743B2, “IRAK degraders and uses thereof” (Kymera Therapeutics, Inc., priority 2017, dated 2020)
